The results in this text go back to patent publication US20210330731A1, “TOPICAL SALVE FORMULATIONS FOR DERMAL ALKALOID DELIVERY” (priority 2020, published 2021).

A short description of the experiment: Topical application of alkaloid-containing analgesic salve formulations, observed pain relief. The format is in vivo, patients. Particulars: for notable effect of secondary ingredient added to formulation: secondary ingredient in topical formulation. The text has this: In most embodiments, three-cup batches of oil and wax (e.g.; 2¼ cup oil, ¾ cup wax or other hardening agent) were infused with an extract produced from at least two ounces of plant matter processed using the above method. In a preferred embodiment, an extract produced from around 4.5 to 6 ounces of herbal material yielded the best results as far as optimal pain relief for the amount of product used.
In one embodiment, a formulation for a kratom alkaloid-based topical product involves extracting alkaloids from kratom powder into a food-grade oil (such as coconut oil) at 160° F. The powder may be combined with a lecithin (such as a sunflower lecithin) to aid in extraction.
In a further embodiment, a formulation involves extracting alkaloids from kratom powder into a food-grade oil at 160° F. for two hours and adding one or more carrier oils. The carrier oils comprise black pepper oil, turmeric oil, peppermint oil and lemon oil. A hardening agent, such as beeswax, may also be added. Piperine (a black pepper alkaloid), curcumin (a metabolite of turmeric), peppermint oil, and lemon oil are intended as dermal carriers and absorption enhancers. Piperine is known to increase curcumin bioavailability.
In a further embodiment, a severe pain relief formulation involves extracting alkaloids from kratom powder into a food-grade oil at 160° F. for two hours and adding one or more carrier oils. The carrier oils comprise black pepper oil, turmeric oil, peppermint oil (alternately, eucalyptus or naioli oils will suffice since they contain similar compounds), lemon oil, magnesium oil, St John's Wort oil, arnica oil, parsley oil, cinnamon oil, lemongrass oil, ginger oil, arnica oil (comprises helenalin, fatty acids (inolenic, palmitic, linoleic, and myristic) thymol, ethers of thymol, thymohydroquinone dimethyl ether, and phlorol isobutyrate (2%)), Ylang Ylang (Cananga odorata) oil (comprises linalool, caryophyllene and germacrene), and/or Black Seed oil (comprises anethole, p-cymene, limonene, carvone and thymoquinone). […] FIG. 2 provides a table 200 listing primary herbal extract sources 210 and secondary ingredients 220, including but not limited to dermal absorption enhancers 222, alkaloid potentiators 224, neuropathic relief agents 226, and anti-inflammation agents 228.
In yet another embodiment, a severe pain and inflammation relief formulation involves extracting alkaloids from kratom powder into a food-grade oil at 160° F. for two hours and adding one or more carrier oils. The carrier oils comprise black pepper oil, turmeric oil, peppermint oil, lemon oil, magnesium oil, St. John's Wort oil, arnica oil, and ginger oil. The kratom powder may be a combination of concentrated kratom extract and kratom powder. […]

As for copper salicylate, the “notable effect of secondary ingredient added to formulation” value (“notable effect” below) was “minor improvement to pain relief”.
With magnesium stearate, the “notable effect” value is reported as “relieved muscle spasms”.
Consider `Oc1ccc(/C=C/c2cc(O)cc(O)c2)cc1` [Trans-resveratrol], for which, where the note is “added to the formulation as alkaloid potentiator”, the “increase of the effect of a formulation (duration)” value is listed as “approximately two hours or longer”.
For the molecule `O=c1c(O)c(-c2ccc(O)c(O)c2)oc2cc(O)cc(O)c12` [quercetin], the “notable effect” value was “decreased pain and inflammation”.
